Test: Stability of tris(pentafluorophenyl)borane hydrates
Type: physicochemical
Details: in solution or in the solid state
Excerpt: Of the class of compounds of the type (C6F5)3B-(YXH)q, when Y is hydrogen, X is oxygen, and q is 1 or 3, the complex with water is a special case. Exposure of anhydrous (C6F5)3B to water vapor, produces (C6F5)3B·3H2O, a white, stable solid. No intermediate hydrate was detected by infrared spectroscopic analysis. […] Formation of a trihydrate was unexpected because all other previously known (C6F5)3B complexes with Lewis bases have a 1:1 stoichiometry. Vacuum sublimation of the trihydrate produced a mixture of the monohydrate and (C6F5)3B. The pure monohydrate, (C6F5)3B·H2O, however may be obtained by combining in organic solvents, such as toluene or chloroform, one equivalent of (C6F5)3B·3H2O with two equivalents of (C6F5)3B followed by evaporation of the solvent. This conproportionation reaction is a convenient way of synthesizing the monohydrate as needed. […] The monohydrate may also be prepared by combining one mole each of water and (C6F5)3B.

## Fc1c(F)c(F)c(B(c2c(F)c(F)c(F)c(F)c2F)c2c(F)c(F)c(F)c(F)c2F)c(F)c1F.O [Example 2]
  stability: unstable and slowly decomposes

Reference: patent EP0891991A2, “Tris(pentafluorophenyl)borate complexes and catalysts derived therefrom” (MINNESOTA MINING AND MANUFACTURING COMPANY, priority 1995, dated 1996)
